Tests used:
DGKα = DGKα (Homo sapiens, UniProt P23743); assay: DGKα biochemical assay (ADP-Glo); conditions: read-out: DGK α IC50
Experimental: (§1) Compounds of the present invention were prepared into 10 mM DMSO solution and 10 nL of stock was transferred into 384 plates (Optiplate 384 plate) using Echo550. DMSO was used as high control, and ATP substrate buffer was used as a low control. A 1× enzyme assay buffer was prepared (Hepes, pH 7.0 25 mM, BSA 0.05%, Triton-X100 0.002%, CaCl2) 1 μM, MgCl2 10 mM, DTT 2 mM). […] OAG (1-oleoyl-2-acetyl-sn-glycerol, 25 mg/ml, Avanti 8001000) and PS (10 mg/ml, Avanti 840032P) were mixed at the ratio of 1:2. A 1× substrate solution was prepared with 1× assay buffer by 100-fold dilution. The substrate solution was sonicated on ice for 1 min. The pure ATP was added to the substrate solution (DGKα:400 μM). 5 μL of the enzyme solution were added to the 384 well plate, and the plate was spun for 1 min at 1000 rpm and incubated for 30 mins at RT. 5 μL of 1× substrate solution were added to the 384 well plate, the plate was spun and then incubated for 45 mins at RT. 10 μL ADP-Glo […] was added to stop the assay. After 60 mins at RT, 20 μL ADP-Glo Detection buffer was added as the final step. Plate was read after 45 min incubation at RT.
(§2) Data analysis was performed by calculating the […] using following the formula:
(§3) [formula] • High control (Hc): DMSO/DGKα(DGKζ)/Substrate/ATP/ADP-Glo • Low Control (Lc): ATP/ADP-Glo

DGKζ = biological target: T1, DGKζ (Homo sapiens, UniProt Q13574); assay: DGKζ biochemical assay (ADP-Glo); conditions: read-out: DGK ζ IC50
T1 construct: purchased Carna 12-110
Experimental: as §1, §2, §3

T1 sequence (Q13574 1-929 isoform Q13574-4): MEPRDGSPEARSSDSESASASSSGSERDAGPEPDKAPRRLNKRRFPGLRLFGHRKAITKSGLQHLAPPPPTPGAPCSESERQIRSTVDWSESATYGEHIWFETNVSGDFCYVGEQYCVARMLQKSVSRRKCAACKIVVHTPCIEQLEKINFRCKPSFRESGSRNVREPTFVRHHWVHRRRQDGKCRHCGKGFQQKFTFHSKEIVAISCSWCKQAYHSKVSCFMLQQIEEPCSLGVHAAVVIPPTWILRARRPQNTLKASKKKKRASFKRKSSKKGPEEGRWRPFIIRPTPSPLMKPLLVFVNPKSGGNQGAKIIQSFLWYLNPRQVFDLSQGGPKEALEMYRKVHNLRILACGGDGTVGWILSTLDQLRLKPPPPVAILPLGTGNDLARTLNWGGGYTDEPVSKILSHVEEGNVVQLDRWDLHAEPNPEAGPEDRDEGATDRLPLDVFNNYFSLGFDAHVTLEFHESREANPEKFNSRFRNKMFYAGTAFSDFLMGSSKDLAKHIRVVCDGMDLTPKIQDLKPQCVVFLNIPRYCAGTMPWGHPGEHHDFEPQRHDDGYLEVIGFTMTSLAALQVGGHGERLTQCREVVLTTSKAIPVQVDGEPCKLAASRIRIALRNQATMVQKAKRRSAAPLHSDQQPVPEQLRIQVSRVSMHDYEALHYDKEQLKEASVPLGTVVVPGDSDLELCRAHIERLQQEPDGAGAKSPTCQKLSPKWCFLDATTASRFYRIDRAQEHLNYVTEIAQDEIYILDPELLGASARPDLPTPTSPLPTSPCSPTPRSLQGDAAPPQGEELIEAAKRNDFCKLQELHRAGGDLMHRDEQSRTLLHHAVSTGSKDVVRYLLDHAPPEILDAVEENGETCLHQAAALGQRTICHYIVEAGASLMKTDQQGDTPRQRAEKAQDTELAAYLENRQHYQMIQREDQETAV
Sequence of DGKα (P23743 whole entry): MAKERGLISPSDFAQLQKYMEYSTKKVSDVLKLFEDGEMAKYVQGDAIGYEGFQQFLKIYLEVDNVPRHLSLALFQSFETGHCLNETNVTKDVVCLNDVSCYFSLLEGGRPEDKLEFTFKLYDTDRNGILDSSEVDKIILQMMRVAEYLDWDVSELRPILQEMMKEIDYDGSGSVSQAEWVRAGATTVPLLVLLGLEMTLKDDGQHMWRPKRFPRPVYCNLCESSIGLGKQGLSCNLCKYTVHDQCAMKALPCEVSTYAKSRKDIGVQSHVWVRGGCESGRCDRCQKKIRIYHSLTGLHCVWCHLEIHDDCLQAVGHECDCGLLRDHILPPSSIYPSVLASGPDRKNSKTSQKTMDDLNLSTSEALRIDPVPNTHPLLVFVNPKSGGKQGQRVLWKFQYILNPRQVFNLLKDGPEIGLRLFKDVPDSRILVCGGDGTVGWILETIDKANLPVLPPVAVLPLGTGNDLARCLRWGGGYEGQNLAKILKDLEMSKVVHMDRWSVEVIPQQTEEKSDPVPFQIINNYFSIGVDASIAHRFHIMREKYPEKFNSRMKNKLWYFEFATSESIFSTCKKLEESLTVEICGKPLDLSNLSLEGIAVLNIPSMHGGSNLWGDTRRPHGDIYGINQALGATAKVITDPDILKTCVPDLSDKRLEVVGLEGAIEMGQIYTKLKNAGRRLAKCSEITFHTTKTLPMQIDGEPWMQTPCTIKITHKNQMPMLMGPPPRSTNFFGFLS

IC50 (DGKα) [µM] | IC50 (DGKζ) [µM] | SMILES
< 0.01 | 0.01 to 0.1 | Cn1c(=O)c(C#N)c(N(C)[C@H]2CC[C@@H](N(CC3CCOC3)c3ccc(F)cc3)CC2)c2nc(C#N)ccc21 (relative stereo) [Example 55, cis-8-((4-((4-fluorophenyl)((tetrahydrofuran-3-yl)methyl)amino)cyclohexyl)(methyl)amino)-5-methyl-6-oxo-5,6-dihydro-1,5-naphthyridine-2,7-dicarbonitrile]
0.01 to 0.1 | ≥ 1 | Cn1c(=O)c(C#N)c(N(C)[C@H]2CC[C@H](N(CC3CCOC3)c3ccc(F)cc3)CC2)c2nc(C#N)ccc21 (relative stereo) [Example 56, trans-8-((4-((4-fluorophenyl)((tetrahydrofuran-3-yl)methyl)amino)cyclohexyl)(methyl)amino)-5-methyl-6-oxo-5,6-dihydro-1,5-naphthyridine-2,7-dicarbonitrile]
< 0.01 | 0.01 to 0.1 | Cn1c(=O)c(C#N)c(N(C)[C@H]2CC[C@@H](N(CC3CCCOC3)c3ccc(F)cc3)CC2)c2nc(C#N)ccc21 (relative stereo) [Example 57, cis-8-((4-((4-fluorophenyl)((tetrahydro-2H-pyran-3-yl)methyl)amino)cyclohexyl)(methyl)amino)-5-methyl-6-oxo-5,6-dihydro-1,5-naphthyridine-2,7-dicarbonitrile]
0.1 to 1 | ≥ 1 | Cn1c(=O)c(C#N)c(N(C)[C@H]2CC[C@H](N(CC3CCCOC3)c3ccc(F)cc3)CC2)c2nc(C#N)ccc21 (relative stereo) [Example 58, trans-8-((4-((4-fluorophenyl)((tetrahydro-2H-pyran-3-yl)methyl)amino)cyclohexyl)(methyl)amino)-5-methyl-6-oxo-5,6-dihydro-1,5-naphthyridine-2,7-dicarbonitrile]
≥ 1 | ≥ 1 | CN(c1cc(=O)n(C)c2ccc(C#N)nc12)C1CCC(N(CC2CCC2)c2ccc(CN3CCOCC3)cc2)CC1 (single isomer, unassigned) [Example 189, (cis or trans)-8-((4-((cyclobutylmethyl)(4-(morpholinomethyl)phenyl)amino)cyclohexyl) (methyl)amino)-5-methyl-6-oxo-5,6-dihydro-1,5-naphthyridine-2-carbonitrile]
0.01 to 0.1 | ≥ 1 | CN(c1c(C#N)c(=O)n(C)c2ccc(C#N)nc12)C1CCC(N(CC2CCC2)c2ccc(CN3CCOCC3)cc2)CC1 (single isomer, unassigned) [Example 190, (cis or trans)-8-((4-((cyclobutylmethyl)(4-(morpholinomethyl)phenyl)amino)cyclohexyl) (methyl)amino)-5-methyl-6-oxo-5,6-dihydro-1,5-naphthyridine-2,7-dicarbonitrile]
0.01 to 0.1 | ≥ 1 | CN(c1c(C#N)c(=O)n(C)c2ccc(Cl)nc12)C1CCC(N(CC2CCC2)c2ccc(CN3CCOCC3)cc2)CC1 (single isomer, unassigned) [Example 191, (cis or trans)-6-chloro-4-((4-((cyclobutylmethyl)(4-(morpholinomethyl)phenyl)amino)cyclohexyl) (methyl)amino)-1-methyl-2-oxo-1,2-dihydro-1,5-naphthyridine-3-carbonitrile]
0.1 to 1 | 0.1 to 1 | Cn1c(=O)cc(N(C)[C@H]2CC[C@@H](N(CC3COCCO3)c3cccc4c3OCO4)CC2)c2nc(C#N)ccc21 (single isomer, unassigned) [Example 195, cis-8-((-4-((((S or R)-1,4-dioxan-2-yl)methyl) (benzo[d][1,3]dioxol-4-yl)amino)cyclohexyl)(methyl)amino)-5-methyl-6-oxo-5,6-dihydro-1,5-naphthyridine-2-carbonitrile]
≥ 1 | 0.1 to 1 | Cn1c(=O)cc(N(C)[C@H]2CC[C@@H](N(CC3COCCO3)c3cccc4c3OCO4)CC2)c2nc(C#N)ccc21 (single isomer, unassigned) [Example 196, cis-8-((-4-((((R or S)-1,4-dioxan-2-yl)methyl) (benzo[d][1,3]dioxol-4-yl)amino)cyclohexyl)(methyl)amino)-5-methyl-6-oxo-5,6-dihydro-1,5-naphthyridine-2-carbonitrile]
≥ 1 | ≥ 1 | CN1CCN(Cc2ccc(N(CC3CC3)C3CCC(N(C)c4c(C#N)c(=O)n(C)c5ccc(C#N)nc45)CC3)cc2)CC1 (single isomer, unassigned) [Example 199, (cis or trans)-8-((4-((cyclopropylmethyl)(4-((4-methylpiperazin-1-yl)methyl)phenyl)amino)cyclohexyl)(methyl)amino)-5-methyl-6-oxo-5,6-dihydro-1,5-naphthyridine-2,7-dicarbonitrile]
0.1 to 1 | 0.1 to 1 | Cc1cc(F)ccc1N(CC1CCCO1)C1CCC(N(C)c2c(C#N)c(=O)n(C)c3ccc(C#N)nc23)CC1 (stereo in doubt) [Example 153, cis-8-((-4-((4-fluoro-2-methylphenyl) ((tetrahydrofuran-2-yl)methyl)amino)cyclohexyl) (methyl)amino)-5-methyl-6-oxo-5,6-dihydro-1,5-naphthyridine-2,7-dicarbonitrile]
0.1 to 1 | ≥ 1 | Cn1c(=O)cc(N2CCC(N(CC3CC3)c3ccccc3O)CC2)c2nc(C#N)ccc21 [Example 1A, 8-(4-((Cyclopropylmethyl)(2-hydroxyphenyl)amino)piperidin-1-yl)-5-methyl-6-oxo-5,6-dihydro-1,5-naphthyridine-2-carbonitrile]
0.01 to 0.1 | 0.1 to 1 | Cn1c(=O)c([N+](=O)[O-])c(N2CCC(N(CC3CC3)c3ccccc3)CC2)c2nc(C#N)ccc21 [Example 1B, 8-(4-((Cyclopropylmethyl)(phenyl)amino)piperidin-1-yl)-5-methyl-7-nitro-6-oxo-5,6-dihydro-1,5-naphthyridine-2-carbonitrile]
≥ 1 | ≥ 1 | Cn1c(=O)c([N+](=O)[O-])c(N2CCC(N(CC3COC3)c3ccccc3)CC2)c2nc(C#N)ccc21 [Example 1C, 5-Methyl-7-nitro-8-(4-((oxetan-3-ylmethyl)(phenyl)amino)piperidin-1-yl)-6-oxo-5,6-dihydro-1,5-naphthyridine-2-carbonitrile]
0.1 to 1 | ≥ 1 | Cn1c(=O)c([N+](=O)[O-])c(N2CCC(N(CC3(C)COC3)c3ccccc3)CC2)c2nc(C#N)ccc21 [Example 1D, 5-Methyl-8-(4-(((3-methyloxetan-3-yl)methyl)(phenyl)amino)piperidin-1-yl)-7-nitro-6-oxo-5,6-dihydro-1,5-naphthyridine-2-carbonitrile]
0.01 to 0.1 | ≥ 1 | Cn1c(=O)c(C#N)c(N2CCC(N(CC3CC3)c3ccccc3O)CC2)c2nc(Cl)ccc21 [Example 1E, 6-Chloro-4-(4-((cyclopropylmethyl)(2-hydroxyphenyl)amino)piperidin-1-yl)-1-methyl-2-oxo-1,2-dihydro-1,5-naphthyridine-3-carbonitrile]
0.01 to 0.1 | ≥ 1 | Cc1ccc2c(c1)c(N1CCC(N(CC3CC3)c3ccccc3)CC1)cc1nncn12 [Example 1F, N-(Cyclopropylmethyl)-1-(7-methyl-[1,2,4]triazolo[4,3-a]quinolin-5-yl)-N-phenylpiperidin-4-amine]
0.01 to 0.1 | ≥ 1 | CN1C(=O)CN([C@H]2CC[C@H](N(CC3CC3)c3ccccc3)CC2)c2nc(C#N)ccc21 [Example 2A, trans-4-[4-[N-(Cyclopropylmethyl)anilino]cyclohexyl]-1-methyl-2-oxo-3H-pyrido[2,3-b]pyrazine-6-carbonitrile]
0.1 to 1 | ≥ 1 | CN1C(=O)CN([C@H]2CC[C@H](N(c3ccccc3O)C3CC3)CC2)c2nc(C#N)ccc21 [Example 2B, 4-(trans-4-(Cyclopropyl(2-hydroxyphenyl)amino)cyclohexyl)-1-methyl-2-oxo-1,2,3,4-tetrahydropyrido[3,2-b]pyrazine-6-carbonitrile]
0.1 to 1 | ≥ 1 | CN1C(=O)CN([C@H]2CC[C@@H](N(CC3CC3)c3ccccc3)CC2)c2nc(C#N)ccc21 [Example 2C, cis-4-[4-[N-(Cyclopropylmethyl)anilino]cyclohexyl]-1-methyl-2-oxo-3H-pyrido[2,3-b]pyrazine-6-carbonitrile]
< 0.01 | ≥ 1 | Cn1c(=O)c(C#N)c(N[C@H]2CC[C@H](N(c3ccccc3)C3CC3)CC2)c2nc(Cl)ccc21 [Example 3A, trans-6-Chloro-4-((4-(cyclopropyl(phenyl)amino)cyclohexyl)amino)-1-methyl-2-oxo-1,2-dihydro-1,5-naphthyridine-3-carbonitrile]
0.1 to 1 | ≥ 1 | Cn1c(=O)cc(N(C)[C@H]2CC[C@H](N(CC3CC3)c3ccc(F)cn3)CC2)c2nc(C#N)ccc21 [Example 3AA]
< 0.01 | ≥ 1 | Cn1c(=O)c(C#N)c(N[C@H]2CC[C@H](N(CC3CC3)c3ccccc3)CC2)c2nc(Cl)ccc21 [Example 3B, trans-6-Chloro-4-((4-((cyclopropylmethyl)(phenyl)amino)cyclohexyl)amino)-1-methyl-2-oxo-1,2-dihydro-1,5-naphthyridine-3-carbonitrile]

— patent US20230271954A1 (Gossamer Bio Services, Inc., priority 2020, published 2023)
